In patent US20170369887A1, “Therapeutic compositions for breast cancer containing protein kinase D1 inhibitor” (SOOKMYUNG WOMEN'S UNIVERSITY INDUSTRY ACADEMIC COOPERATION …, priority 2016, published 2017):

Experiments:
GSK3/β-catenin signaling [1] = test: Western blot of GSK3/β-catenin signaling in MCF-7 cells; format: cell-based, human; conditions: FIG. 12A
Method: (§1) A total of 30 μg of a protein extract was isolated by 8% SDS-PAGE and the protein was electrophoretically transferred to a PVDF membrane. The primary antibodies used were phosphorylated PKD/PKCμ (Ser916), GSK3β, phosphorylated GSK3α (Ser21)/β (Ser9), and β-catenin. These antibodies were purchased from Cell Signaling Technology (Danvers, Mass., USA) and the PKD/PKCμ antibody was purchased from Santa Cruz Biotechnology. (β-actin (Bethyl Laboratories, Montgomery, Tex., USA) was used as a loading control. The membrane was washed with 1×PBS/0.1% Tween 20 and the bound proteins were detected with an enhanced chemiluminescent reagent (Amersham Pharmacia Biotech, Parsippany, N.J., USA).

MCF-7-ADR cells [2] = test: MCF-7-ADR xenograft in nude mice treated with CRT0066101; format: in vivo, mouse
Method: A control or miR-32a overexpressed tumor and a carrier or CRT0066101 treated tumor were cut and paraffin-treated slides were used. The paraffin was removed from the slides, rehydrated 3 to 4 times in Histoclear, and then passed sequentially through ethanol at different concentrations (100%, 95%, 80%, and 70%). Antigen reconstitution was performed by immersing fragments in a 0.01M citric acid solution (pH 6.0) and boiling the fragments in a microwave for 15 minutes. In the case of TUNEL analysis, an in-situ apoptosis detection kit, a fluorescent material (Roche, Indianapolis, USA) labeled apoptotic cells, and a Ki-67 primary antibody (Vector Lab, USA) were applied to the fragments and incubated at 4° C. overnight. Thereafter, the slides were incubated with DAPI and secondary antibody for two hours. Finally, the slides were treated with a mounting solution (Dako) and a photograph was taken with a confocal microscope (Zeiss).
All studies, including the use of nude mice, were approved by the committee on animal protection and use of the Yonsei University Medical center (2015-0087) and performed under conditions according to facilities without specific pathogens and the guideline of the committee. Mice were anesthetized with 150 μl saline/zoletil/rompun (7:1:1) outside each femoral region and subcutaneously injected with 1.5×10^6 of MCF-7-ADR cells. Six mice were randomly grouped and started to be treated from 10-th day after tumor graft. […] The tumor size was measured every 3 to 4 days using a caliper from formation of touched tumor to termination and the tumor volume was calculated by Equation of length×width^2×0.5236. The mice were sacrificed in a 7.5% CO2 chamber and tumors were isolated and used for immunohistochemistry and other assays.

[3] = target: T1, PRKD1 autophosphorylation (Homo sapiens, UniProt Q15139); conditions: reference [16]; cited from earlier work
T1 sequence (Q15139 1-912): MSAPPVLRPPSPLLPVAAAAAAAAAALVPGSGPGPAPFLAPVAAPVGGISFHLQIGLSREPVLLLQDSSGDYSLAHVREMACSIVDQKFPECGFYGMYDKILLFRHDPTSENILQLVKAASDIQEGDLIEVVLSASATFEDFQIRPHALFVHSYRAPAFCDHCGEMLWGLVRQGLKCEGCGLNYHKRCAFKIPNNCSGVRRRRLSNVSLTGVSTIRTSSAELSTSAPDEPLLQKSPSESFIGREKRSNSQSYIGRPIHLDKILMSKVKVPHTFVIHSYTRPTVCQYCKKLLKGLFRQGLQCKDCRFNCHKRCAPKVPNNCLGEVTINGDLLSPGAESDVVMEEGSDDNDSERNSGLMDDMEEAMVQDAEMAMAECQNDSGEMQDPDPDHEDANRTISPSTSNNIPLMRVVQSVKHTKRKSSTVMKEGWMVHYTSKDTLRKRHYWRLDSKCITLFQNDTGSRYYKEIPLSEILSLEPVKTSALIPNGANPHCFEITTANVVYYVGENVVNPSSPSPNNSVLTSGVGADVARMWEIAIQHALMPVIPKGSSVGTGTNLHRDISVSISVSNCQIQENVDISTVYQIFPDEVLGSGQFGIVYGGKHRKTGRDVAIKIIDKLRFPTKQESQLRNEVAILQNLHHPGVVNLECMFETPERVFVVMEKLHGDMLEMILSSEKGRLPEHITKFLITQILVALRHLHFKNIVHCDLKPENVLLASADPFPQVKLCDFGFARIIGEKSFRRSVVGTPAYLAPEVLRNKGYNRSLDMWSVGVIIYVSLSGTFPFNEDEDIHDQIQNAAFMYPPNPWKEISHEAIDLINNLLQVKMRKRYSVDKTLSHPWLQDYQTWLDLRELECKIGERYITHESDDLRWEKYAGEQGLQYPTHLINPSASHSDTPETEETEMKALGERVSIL

GSK3/β-catenin signaling [4] = test: Western blot of PKD/PKCμ phosphorylation and GSK3/β-catenin signaling in MCF-7-ADR cells; format: cell-based, human; conditions: 1 μM or 5 μM, FIG. 3A
Method: CRT0066101 was purchased from R&D Systems (Minneapolis, Minn., USA); this drug was resuspended in sterile distilled water and used for in vivo studies. To treat CRT0066101, MCF-7-ADR cells (American Type Culture Collection, Manassas, Va., USA) were seeded and 0.1 to 10 μM CRT0066101 was added and incubated for 1 hour. WST-8 was purchased from Enzo Life Sciences, Inc. (Farmingdale, N.Y., USA). PRKD1 siRNA and scrambled siRNA (Santa Cruz Biotechnology, Santa Cruz, Calif., USA) were transfected by using Lipofectamine RNAiMAX (Invitrogen, Carlsbad, Calif., USA).
as §1

MCF-7-ADR cells [5] = test: Cell survival rate, WST-8 assay, MCF-7-ADR; format: cell-based, human
Method: […] Cell survival rate was analyzed by WST-8 assay (Sigma-Aldrich) and an optical density was measured at 450 nm using a microplate reader.

MCF-7-ADR cells [6] = test: Tumorsphere formation assay (TSA); format: cell-based, human; conditions: 1 μM or 5 μM, vs control, FIG. 3B
Method: For incubation of tumorspheres, cells (2000 cells/mL) were suspended and incubated in serum-free DMEM/F12 (welGENE) containing 1% penicillin, B27 (1:50; Gibco; Thermo Fisher), 20 ng/mL of an epidermal growth factor (Prospec, East Brunswick, N.J., (WelGENE) […] of insulin (Sigma-Aldrich, St. Louis, Mo., USA) and 0.4% bovine serum albumin (Sigma-Aldrich). After about 10 days, the plate was analyzed and formation of tumorspheres was verified and quantified with a microscope (Olympus IX71; Olympus, Tokyo, Japan). In order to count the number of tumorspheres, MCF-7-ADR cells were filtered and quantified by a strainer (BD Biosciences, East Rutherford, N.J., USA) having a pore size of 70 μm. Treatment with CRT0066101 was performed on 6-th day and 8-th day after incubation.

MCF-7-ADR cells [7] = test: Annexin V and propidium iodide (PI) staining; format: cell-based, human; conditions: FIG. 4E
MCF-7 cells = test: Cell survival rate, WST-8 assay, MCF-7; format: cell-based, human; conditions: 0.1 to 5 μM, FIG. 12B
MCF-7-ADR cells [8] = test: CD44+/CD24− surface marker analysis using flow cytometry; format: cell-based, human; conditions: 1 μM, FIG. 3C
Method: Cells were collected after transfection with RNAi of PRKD1 or CRT0066101 treatment and expression of CD44 +/CD24-surfaces was evaluated. The cells were washed with 2% FBS, stained with anti-CD44 (APC-conjugated; BD Biosciences) and anti-CD24 (BD Biosciences) in a PBS containing 2% FBS, and placed on ice in the dark for 30 minutes. The cells were washed again with a cold PBS buffer, loaded with >10,000 cells in a BD CantoII flow cytometer (BD Biosciences), and then analyzed by flow cytometry using FACSDiVa software (BD Biosciences).

[9] = treated tumor vs control, FIG. 5G

SMILES | GSK3/β-catenin signaling (GSK3/β-catenin signaling [1]) | side effects (sign of toxicity, weight loss) (MCF-7-ADR cells [2]; 65 mg/kg daily for 4 weeks, all animals, FIG. 5E) | tumor size (MCF-7-ADR cells [2]; 65 mg/kg daily for 4 weeks, oral, vs untreated control, FIG. 5D) | tumor weight (MCF-7-ADR cells [2]; 65 mg/kg daily for 4 weeks, vs control tumor, FIG. 5E) | change in mouse's weight (MCF-7-ADR cells [2]; 65 mg/kg orally daily for 4 weeks, FIG. 5E) | volume of tumor (MCF-7-ADR cells [2]; 65 mg/kg orally daily for 4 weeks, vs control tumor, FIG. 5E) | apoptosis in tumor, TUNEL analysis (MCF-7-ADR cells [2]; [9]) | proliferation in tumor, Ki-67 staining (MCF-7-ADR cells [2]; [9]) | phosphorylated PKD/PKCμ through GSK3/β-catenin signaling in tumor (MCF-7-ADR cells [2]; western blot of tumor, FIG. 5F) | growth of pancreatic cancer [3] | phosphorylation of PKD/PKCμ and GSK3/β-catenin (GSK3/β-catenin signaling [4]) | cell survival rate (MCF-7-ADR cells [5]; MCF-7-ADR cells, 0.1 to 5 μM, FIG. 4C) | cell survival rate, combination with doxorubicin (MCF-7-ADR cells [5]; MCF-7-ADR, CRT0066101 combined with doxorubicin, vs CRT0066101 alone, FIG. 4D) | number of tumorspheres (>70 μm) (MCF-7-ADR cells [6]) | level of apoptosis in doxorubicin-treated cells (MCF-7-ADR cells [7]; CRT0066101 added to doxorubicin-treated cells) | cell survival rate (MCF-7 cells) | number (Q1) of CD44+/CD24− (MCF-7-ADR cells [8]) | cell survival rate (MCF-7-ADR cells [5]; MCF-7-ADR cells exposed to doxorubicin at different doses, FIG. 4A) | initiation of apoptosis (MCF-7-ADR cells [7]; treated cells vs control)
CC[C@@H](N)CNc1ccnc(-c2cc(-c3cnn(C)c3)ccc2O)n1.Cl.Cl [CRT0066101] | not affected | did not cause side effects | reduced | reduced | not detected | reduced | apoptosis increased | proliferation decreased | down regulation | blocked growth | inhibited | decreased cell survival rate dose-dependently | significantly lowered | decreased dose-dependently | increased | did not decrease | also decreased | – | –
COc1cccc2c1C(=O)c1c(O)c3c(c(O)c1C2=O)C[C@@](O)(C(=O)CO)C[C@@H]3O[C@H]1C[C@H](N)[C@H](O)[C@H](C)O1 [doxorubicin] | – | – | – | – | – | – | – | – | – | – | – | – | – | – | – | – | – | reduced dose-dependently | increased
